ChEMBL document CHEMBL4304794
The source made the active and inactive calls. No cut-off for these calls is given here.

How the values were obtained:
[1] = target: Programmed cell death protein 1 (Homo sapiens) (UniProt Q15116); test: Binding affinity to biotinylated recombinant human C-terminal FC -tagged PD1 (25 to 167 residues) at 0.3 to 300 uM by SPR analysis
[2] = target: Programmed cell death 1 ligand 1 (Mus musculus) (UniProt Q9EP73); test: Inhibition of recombinant mouse N-terminal PDL1 (19 to 238 residues) assessed as recovery of mouse splenocyte proliferation at 100 nM by CFSE-based FACS analysis relative to control
Sequence of Programmed cell death 1 ligand 1 (Mus musculus) (Q9EP73 whole entry, the tested form may be a part): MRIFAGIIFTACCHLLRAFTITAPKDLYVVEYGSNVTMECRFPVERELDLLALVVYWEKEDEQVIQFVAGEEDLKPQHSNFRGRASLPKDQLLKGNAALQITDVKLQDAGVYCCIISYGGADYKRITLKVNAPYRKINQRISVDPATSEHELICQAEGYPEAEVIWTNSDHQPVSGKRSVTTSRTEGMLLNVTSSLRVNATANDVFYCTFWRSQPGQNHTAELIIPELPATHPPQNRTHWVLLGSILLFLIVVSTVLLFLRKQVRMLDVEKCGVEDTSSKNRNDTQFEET

[3] = target: Programmed cell death 1 ligand 1 (Homo sapiens) (UniProt Q9NZQ7); test: Inhibition of PDL1 in human […] cells assessed as recovery of mouse splenocyte proliferation at 100 nM by CFSE-based FACS analysis relative to control; type: cell-based
Sequence of Programmed cell death 1 ligand 1 (Homo sapiens) (Q9NZQ7 whole entry): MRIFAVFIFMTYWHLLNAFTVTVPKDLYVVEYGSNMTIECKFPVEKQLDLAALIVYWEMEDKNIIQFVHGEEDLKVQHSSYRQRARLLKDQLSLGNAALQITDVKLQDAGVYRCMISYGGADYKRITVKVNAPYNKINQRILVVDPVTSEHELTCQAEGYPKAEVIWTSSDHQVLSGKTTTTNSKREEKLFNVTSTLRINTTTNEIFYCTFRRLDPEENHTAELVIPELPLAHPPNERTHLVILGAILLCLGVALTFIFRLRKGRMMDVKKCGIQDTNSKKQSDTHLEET

Sequence of Programmed cell death protein 1 (Homo sapiens) (Q15116 whole entry, the tested form may be a part): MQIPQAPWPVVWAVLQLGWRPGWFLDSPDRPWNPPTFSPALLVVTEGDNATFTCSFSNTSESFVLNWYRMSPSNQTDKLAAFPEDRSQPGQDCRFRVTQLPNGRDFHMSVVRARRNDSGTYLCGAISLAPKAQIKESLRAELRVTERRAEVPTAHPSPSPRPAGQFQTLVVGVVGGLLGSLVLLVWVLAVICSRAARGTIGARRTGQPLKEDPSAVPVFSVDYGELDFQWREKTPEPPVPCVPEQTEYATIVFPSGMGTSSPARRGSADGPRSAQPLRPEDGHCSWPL

`C#CC[C@H](NC(=O)N[C@H](C(=O)O)[C@@H](C)O)c1nc(-c2cnccn2)no1` was tested, and the Activity [1] was “inactive” and the inhibition [2] was 92%.

In the case of `C[C@@H](O)[C@H](NC(=O)N[C@@H](CC(N)=O)C(=O)NNC(=O)[C@@H](N)CO)C(=O)O`, the inhibition [3] is reported as 68% and the Activity [1] is reported as “inactive”.

`NC(=O)C[C@H](N)c1nc([C@@H](N)CO)no1` was tested, and the Activity [1] was “inactive” and the inhibition [2] was 93%.
